Entries after “also recorded” stand apart in the source; their conditions may differ.
Key:
[1] = tested on: Horse chondrocytes from OA horses; experiment: ATP-evoked intracellular Ca2+ signalling in horse chondrocytes (fluorescence-based assay, Flexstation 3); type: cell-based; conditions: for intracellular Ca2+ release (AUC and peak): ATP 10^-4 M, OA horse chondrocytes
Description: Horse chondrocytes from OA horses were stimulated, in a fluorescence-based assay for detecting changes in intracellular Ca^2+ over time, with ATP (10^−4 M). The cells were cultivated in 5.5 mM glucose the whole cultivation period. Ca^2+ responses were measured after the cells were incubated for 24 h with metformin (1 mM), and bupivacaine (10^−12 M). Controls are untreated chondrocytes. The area under the Ca^2+ peak (AUC)(FIG. 1 A) was calculated for each Ca^2+ transient as well as the amplitude (peak) (FIG. 1 B) was expressed as the maximum increase. The cells were obtained from 4 experiments with quadruple wells in each. The level of significance was analyzed using a one-way ANOVA followed by Dunnett'multiple comparisons test. **P<0.01, **P<0.001. Similar data was obtained for human chondrocytes.
Articular cartilage samples were obtained, within 24 h of euthanasia, from the middle carpal joints of six horses (1-8-year-old). […] The horses were euthanized because of reasons unrelated to this study, and the Ethical Committee on Animal Experiments, Stockholm, Sweden, approved the study protocol (Dnr: N378/12).
Following aseptic preparation, cartilage of the dorsal aspect of the radial facet of the third carpal bone was incised with a scalpel, and full-thickness cartilage samples were collected with forceps. The tissue was placed in a sterile saline (0.9% NaCl) solution with gentamicin sulfate (50 mg/l) and amphotericin B (250 μg/ml). Cartilage samples were transported chilled (approx. 5° C.) to the laboratory. Isolation and expansion of chondrocytes were performed as previously described (Ley C, Svala E, Nilton A, Lindahl A, Eloranta M, Ekman S, Skiöldebrand E.Connect Tissue Res. (2011); 52 (4): 290-300). Cells were expanded in passage 1 and cells were seeded at 20,000 cells/cm2 in chondrogenic media to maintain the phenotype, DMEM-high glucose (DMEM-HG) (Thermo Fisher Scientific; Waltham, Mass., USA) supplemented with 14 μg/ml ascorbic acid (Sigma-Aldrich, St. Louis, Mo., USA), 10^−7 M dexamethasone (Sigma-Aldrich), 1 mg/ml human serum albumin (Equitech Bio, Kerville, Tex., USA), 1× insulin-transferrin-selenium (Gibco, Life Technologies, Carlsbad, Calif., USA), 5 μg/ml linoleic acid (Sigma-Aldrich), 1× penicillin-streptomycin (PEST) (Sigma-Aldrich), and 10 ng/ml human transforming growth factor (TGF) β-1 (R&D Systems, Abingdon, UK) for 5 days until confluence, in 96-well culture plates for Ca^2+ or in 6-well culture plates for Western blot analysis.
For restoration the cells were incubated with metformin and bupivacaine at day 4 of cultivation for 24 h. At day 5 the Ca^2+ measurements were performed, medium collected for Western blot analysis and cells were harvested and immediately frozen at −80° C. before analysis. […]

human chondrocytes = experiment: Quantitative real-time PCR of growth factors GDF-5 and FGF-18 in chondrocytes; type: cell-based; conditions: for FGF18 expression / GDF5 expression: human chondrocytes, treatment of bupivacaine and sildenafil, FIGS. 1C-D
Description: Cells (human chondrocytes) aimed for RNA isolation were washed with sterile PBS twice before addition of 1M DL-Dithiothreitol solution (Sigma Aldrich) in lysis buffer (Qiagen). The cells were visually inspected to ensure lysis before transfer to RNAse free, endtoxin-free sample tubes, snap frozen in liquid nitrogen, and stored at −80° C. for RNA isolation. Total RNA was extracted and purified with a commercially available kit (RNeasy mini kit, Qiagen) in accordance with the manufacturer's protocol. In brief, cells in lysis buffer were thawed and vortexed for 1 minute before 70% ethanol was added (1:1). The samples were mixed before addition to a spin column, and centrifuged. The column was then washed before genomic DNA was removed with DNase (Qiagen). The washing step was repeated with a stringent wash buffer and thereafter a mild buffer for washing membrane bound RNA. Total RNA was eluted with 50 μl RNase free water. RNA concentration was measured ho with a micro-volume spectrophotometer (ND-1000 spectrophotometer, NanoDrop Technologies, Wilmington, Del.) and RNA quality was evaluated using the Agilent 2100 Bioanalyzer system (Agilent Technologies Inc, Palo Alto, Calif.). cDNA was prepared from total RNA using High Capacity cDNA Reverse Transcription Kit (Applied Biosystems, Foster City, Calif., USA). Commercially available TaqMan Gene Expression Assays all from Applied Biosystems were used (Fibroblast growth factor 18 (FGF-18) and Growth and differentiation factor-5 (GDF-5)). Samples were analyzed in duplicates. The relative comparative CT method was used to analyze the real-time polymerase chain reaction (PCR) data.

horse with OA = experiment: Clinical lameness examination with flexion test in horses with osteoarthritis; type: in vivo
Text: Lameness examination with flexion test and treatments have been performed by a veterinarian, and the results are shown in FIG. 2A. Lameness examination with flexion test and treatments have been performed by a veterinarian, and the results are shown in FIG. 3A.

COMP neo-epitope = COMP neo-epitope concentration in synovial fluid and serum of horses with osteoarthritis; type: in vivo, horse; conditions: for COMP neo-epitope concentration in serum: after treatment and during rehabilitation
Text: Diagnosis of OA may be done with methods known in the art, for example clinical examination, radiography as is known in the art or the use of biomarkers, such as, for example, the COMP protein fragment described in WO2017216289, which is incorporated herein by reference. The presence of the COMP fragment in a bodily fluid, for example serum or synovial fluid, indicates OA, in particular cartilage degradation during OA. The COMP fragment may be detected by using an antibody that specifically binds to a peptide comprising the amino acid sequence N-terminal-SGPTH. It is referred to WO2017216289 for details.
Analysis of COMP epitope concentrations in synovial fluid and serum was carried out as in WO2017216289, and is shown in FIGS. 2B and C, respectively. The presence of the COMP epitope indicates ongoing inflammation and tissue damage in the joint.

C=C1/C(=C\C=C2/CCC[C@]3(C)[C@@H]([C@H](C)CCCC(C)(C)O)CC[C@@H]23)C[C@@H](O)C[C@@H]1O [D3, 1α,25-dihydroxyvitamin D3]
intracellular Ca2+ release ([1]; D3 (calcitriol 100 nM) by itself, 24 h, FIG. 1E): did not have an effect

CCCCN1CCCCC1C(=O)Nc1c(C)cccc1C (centres unmarked) [bupivacaine]
intracellular Ca2+ release (AUC and peak) ([1]; bupivacaine 10^-12 M together with metformin 1 mM, 24 h): decreased; also recorded: reduced
FGF18 expression (human chondrocytes): upregulated
GDF5 expression (human chondrocytes): upregulated
growth factors of importance for generation of cartilage (human chondrocytes; low concentration of bupivacaine): upregulated

CCCc1nn(C)c2c(=O)[nH]c(-c3cc(S(=O)(=O)N4CCN(C)CC4)ccc3OCC)nc12 [sildenafil]
clinical lameness grade (horse with OA; horse number 2, carpal joints, 10 ml intra-articular injections): clinical recovery
clinical lameness grade (horse with OA; horse number 3, both carpal joints, intra-articular injection): clinical recovery
intracellular Ca2+ release (AUC and peak) ([1]; sildenafil (1 μM, low concentration) added to bupivacaine/metformin, 24 h): increased the effect
intracellular calcium signalling, in particular ATP-evoked ([1]; low doses): capable of inhibiting
COMP neo-epitope concentration in serum (COMP neo-epitope; horse number 2, FIG. 3C): decrease of COMP levels to normal physiological levels
COMP neo-epitope concentration in synovial fluid (COMP neo-epitope; horse number 2, FIG. 3B): decrease of COMP levels to normal physiological levels
COMP neo-epitope concentration in serum (COMP neo-epitope; horse number 3, FIG. 4C): decreased levels of COMP
COMP neo-epitope concentration in synovial fluid (COMP neo-epitope; horse number 3, FIG. 4B): decreased levels of COMP
growth factors of importance for generation of cartilage (human chondrocytes; addition of sildenafil in low concentration to bupivacaine): increased the effect
FGF18 expression (human chondrocytes): upregulated
GDF5 expression (human chondrocytes): upregulated

hyaluronic acid
lameness (horse with OA; horse number 1, both fetlock joints, hyaluronic acid intra-articularly and corticosteroids orally): lameness was increased
